# In PubChem BioAssay (NCI):
# Values joined by “and” are separate entries in the source; they are usually repeats but may differ in a detail not shown here. Identical values can stand only once.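 The compound was tested at five concentrations on cells cultured in 96-well plates, with a 48-hour exposure period. Here, GI50 denotes the concentration required for 50% inhibition of growth. TGI denotes the concentration required for complete inhibition of growth.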
# Test system: RXF 393 renal
# Assay: inhibition of tumour cell growth, NCI panel, 48 h
Structure (SMILES),TGI,GI50
COc1cc(Nc2cnc3ccc(C(F)(F)F)cc3n2)cc(OC)c1OC,> 100 µM,–
O=C1NC2=C(CCCCC/C2=N\O)C12CCCCCC2,> 100 µM,–
CCc1cccc(C)c1NC(=O)CCc1nc(=S)[nH][nH]1,> 100 µM,–
N#C/C(=C\c1cc(OCc2ccccc2)c(OCc2ccccc2)cn1)C(N)=O,> 100 µM,–
O=C1NC(=O)c2c1n(Cc1ccccc1)c(=O)n2Cc1ccccc1,> 100 µM,–
Cc1nc(N)nc(CCC(=O)Nc2cccc(C(F)(F)F)c2)c1-c1ccc(Cl)cc1,> 100 µM,–
COc1cc([C@@H]2c3cc4c(cc3[C@@H](NC(=O)c3ccc(C#N)cc3)C3COC(=O)[C@@H]32)OCO4)cc(OC)c1O (stereo not given in full),9.92 µM,–
Cc1nn(-c2ccc(Cl)cc2)c2ncnc(N/N=C/c3ccccc3O)c12,21.7 µM and 11.3 µM,1970 nM and 683 nM
COc1ccc(OC)c(/C=C/c2nc(=S)n(-c3ccc(Cl)cc3)[nH]2)c1,38.7 µM,3380 nM
COc1ccc2c(c1)C(=O)c1c-2c(Nc2ccccc2OC)nc2ccccc12,> 100 µM,> 100000 nM
COc1ccc2c(N)ncc(C#Cc3cc(C(=O)Nc4ccc(CN5CCN(C)CC5)c(C(F)(F)F)c4)cnc3C)c2c1,1.11 µM,502 nM
COc1cc2c(N3CCN(C(=O)Nc4ccc(OC(C)C)cc4)CC3)ncnc2cc1OCCCN1CCCCC1,23.6 µM,8610 nM
c1ccc(-c2[nH]ncc2-c2ccnc(-c3ccc(OCCn4ccnc4)cc3)c2)nc1,> 25 µM,> 25000 nM
O=C1c2cccc(Oc3ccccc3)c2C(=O)c2cccc(Oc3ccccc3)c21,36.4 µM,4700 nM
O=C(OCc1ccc2c(Br)cc(Br)c(O)c2n1)c1cc2ccccc2[nH]1,1.26 µM,338 nM
CC(C)(CO)CNC(=O)c1ccc2[nH]c(O)c(N=Nc3ccc(S(N)(=O)=O)cc3)c2c1,> 25 µM,> 25000 nM

Structure (SMILES),TGI,GI50
Cc1cc(O)c2c(c1)C(=O)C=CC2=O,9.57 µM and 9.17 µM,–
CC1(C)N=C(N)N=C(N)N1c1ccc(CCC(=O)Nc2ccc(S(=O)(=O)F)cc2)cc1,> 100 µM,307 nM
N#CC1(c2ccc(NC(=O)c3cccnc3NCc3ccncc3)cc2)CCCC1,12.3 µM,2810 nM
CCN1C(=S)N(CC)C2C1NC(=S)N2/N=C/C=C/c1ccccc1OC (stereo not given),0.498 µM,92 nM
Cn1nccc1Nc1nccc(-c2ccn([C@H](CO)c3ccc(Cl)c(F)c3)c(=O)c2)n1,65.5 µM,20400 nM
CCOC(=O)c1nc(C)oc1C(F)(F)F,> 100 µM,–
O=C(Nc1cccc(-n2cc(-c3ccncc3)c(-c3cc(O)cc(Cl)c3)n2)c1)c1ccc(N2CCOCC2)c(C(F)(F)F)c1,1.9 µM,303 nM
N#CC1c2ccccc2C=CN1C(=O)CCCl (stereo not given),25.9 µM,11800 nM
O=C1NC(=N[C@@H](CO)c2ccccc2)S/C1=C\c1ccc2ncccc2c1,> 25 µM,5840 nM
O=C1/C(=C/c2ccc(Cl)c(Cl)c2)CN(C(=O)CCN2CCC(=NO)CC2)C/C1=C\c1ccc(Cl)c(Cl)c1,2.59 µM,1130 nM
CCNc1nc(O)c(/C=C2\C=Nc3ncccc32)s1,4.29 µM,2050 nM
COc1nc2c(c(O)c(C)c(=O)n2OC2OCC(OC(C)=O)C(OC(C)=O)C2OC(C)=O)c(=O)n1C (stereo not given),> 100 µM,–
O=C(/C=C/C12c3ccccc3C(c3ccccc31)C1C(=O)NC(=O)C12)c1ccccn1 (stereo not given),3.12 µM,1610 nM
O=C(NC1C(=O)NNC1c1cccc([N+](=O)[O-])c1)c1ccccc1 (stereo not given),> 100 µM,–
O=C1CC(c2ccccc2)Oc2ccccc21 (stereo not given),94.4 µM,–

# Test system: SF-268 CNS
# Assay: inhibition of tumour cell growth, NCI panel, 48 h
row,Structure (SMILES),TGI
1,Cc1nc2ccccc2nc1CC(=O)C(=O)Nc1ccc(Cl)cc1Cl,> 100 µM
2,COc1cc(Nc2cnc3ccc(C(F)(F)F)cc3n2)cc(OC)c1OC,> 100 µM
3,O=C1NC2=C(CCCCC/C2=N\O)C12CCCCCC2,> 100 µM
4,CCc1cccc(C)c1NC(=O)CCc1nc(=S)[nH][nH]1,> 100 µM
5,N#C/C(=C\c1cc(OCc2ccccc2)c(OCc2ccccc2)cn1)C(N)=O,> 100 µM
